Assay results as given in patent US10793552B2, “Amino pyrimidine ssao inhibitors” (Eli Lilly and Company, priority 2016, dated 2020).
Read-outs that look alike come from different tables or passages of the source.

What was measured:
Type in all cases: in vivo
SSAO = SSAO (Rattus norvegicus (Rat), UniProt O08590); assay: SSAO Target Engagement in rat plasma and liver; conditions: for activity at 0.005 mg/kg / activity at 0.025 mg/kg / activity at 0.12 mg/kg / activity at 0.6 mg/kg / activity at 3 mg/kg / activity at 15 mg/kg: mean ± SEM
Protocol: The SSAO activity in rat plasma and liver tissues are measured using the MAO-Glo™ assay kit from Promega (V1402). The residual SSAO activity in rats after compound treatment is estimated by measuring the total amine oxidase activity in plasma or liver lysates that are insensitive to the presence of the MAO inhibitor Clogyline and Pargyline. Rats are administered the compound of Example 2 at the doses of 15, 3, 0.6, 0.12, 0.025, 0.005 mg/kg. The control group is administered with the same volume (2 ml/kg) of the dosing vehicle (hydroxyethyl cellulose 1% w/v, 0.25% Tween 80). Plasma and liver at 2 or 24 hours post compound treatment are harvested and stored at −78° C. until analysis. Tissue lysates are prepared by homogenization in a lysis buffer (20 mM HEPES, pH 7.4, 150 mM NaCl, 1 mM EDTA, 1 mM EGTA, 1% Triton X-100 and 1× Roche Complete protease inhibitor tablet). Tissue particles are removed by centrifugation at 12,000 rpm at 4° C. for 30 minutes. 40 μl of plasma or liver lysates is incubated with Clogyline (10 μM) and Pargyline (10 μM) for 20 minutes at room temperature before the addition of the luminogenic substrate (50 μM) for 60 minutes. The product generated is quantified according to the manufacture's procedure. The fraction of activity that is insensitive to the presence of the MAO inhibitors is used as the surrogate for the residual SSAO activity. The compound of Example 2 was evaluated in the protocol essentially as described above administered at various doses.

[1] = Plasma compound levels in 3H diet mice by mass spectroscopy; conditions: mouse, treated 76 days, 2 hours after the last dose, all doses
Protocol: Male C57BL/6N mice are fed with D09100301 diet (Research Diets, 40% fat, 2% cholesterol, 24% fructose, (the, high fat, high cholesterol and high fructose, the “3H diet”) for 150 days. Each mouse is then singly housed after 5 days for an acclimation period. Plasma alanine aminotransferase (ALT) and cytokeratin 18 (CK18) are measured. After one week of recovery, the mice are randomized into 5 groups based on their ALT values, CK18 values, and body weight. Animals of each group are administrated either vehicle (0.5% methylcellulose (MC)+0.25% Tween 80 in distilled water) or the compound of Example 6 (at a 0.06, 2, 6, and 20 mg/kg dose) once daily in a volume of 5 ml/kg for 11 weeks. Blood is collected from mice treated with the compound of Example 6 for 76 days 2 hours after the last dose. Compound levels in the plasma are analyzed by mass spectroscopy.

[2] = test system: C57BL/6N mice fed 3H diet; assay: Mouse Model of NASH and Fibrosis Induced by 3H Diet; conditions: mouse 3H diet; for Score (0-3) Hepatic inflammation Left / Score (0-3) Macrovesicular vaculation Left / Score (0-3) Perisinusoidal fibrosis Left: left lobe; for Score (0-3) Hepatic inflammation Left / Score (0-3) Macrovesicular vaculation Left / Score (0-3) Perisinusoidal fibrosis Left / Score (0-3) Hepatic inflammation Right / Score (0-3) Macrovesicular vaculation Right / Score (0-3) Perisinusoidal fibrosis Right: mean ± SEM; for Score (0-3) Hepatic inflammation Right / Score (0-3) Macrovesicular vaculation Right / Score (0-3) Perisinusoidal fibrosis Right: right lobe
Protocol: Male C57BL/6N mice are fed with D09100301 diet (Research Diets, 40% fat, 2% cholesterol, 24% fructose, (the, high fat, high cholesterol and high fructose, the “3H diet”) for 150 days. Each mouse is then singly housed after 5 days for an acclimation period. Plasma alanine aminotransferase (ALT) and cytokeratin 18 (CK18) are measured. After one week of recovery, the mice are randomized into 5 groups based on their ALT values, CK18 values, and body weight. […] Blood is collected from mice treated with the compound of Example 6 for 76 days 2 hours after the last dose. Compound levels in the plasma are analyzed by mass spectroscopy. […] At the completion of the study, the animals are sacrificed and their livers excised. Two sections of the left and right lobes are fixed in neutral buffered 10% formalin. Liver tissue slides are stained with hematoxylin and eosin (H&E), Sirius red, and Masson's Trichrome to prepare slides for pathological analysis. All specimens are examined microscopically and scored as a modified Brunt score NASH Activity Score. Scores are based on the grading scheme and end-points as described in Brunt E. M. et al., “Histopathology of nonalcoholic fatty liver disease,” World J. of Gastroenterol, 2010, 16(42), 5286-5296. Group means are then calculated for each individual end-point. The following endpoints are used to characterize the fast food model of NASH in mice as modified from NASH endpoints (See Brunt, E. M. “Histopathology of nonalcoholic fatty liver disease,” Clin Liver Dis., 2009, 13, 533-544 and Brunt, E. M, et al., “Nonalcoholic steatohepatitis: A proposal for grading and staging the histological lesions”, Am J Gastroenterology, 1999, 94(9), 2467-2474.

[3] = liver, 24 hour, n = 6, read-out: SSAO Activity (%) Liver 24 hour
[4] = plasma, 2 hour, n = 6, read-out: SSAO Activity (%) Plasma 2 hour
[5] = plasma, 24 hour, n = 6, read-out: SSAO Activity (%) Plasma 24 hour
[6] = 20 mg/kg once daily 11 weeks, p < 0.05 vs vehicle

SSAO, sequence (O08590 whole entry): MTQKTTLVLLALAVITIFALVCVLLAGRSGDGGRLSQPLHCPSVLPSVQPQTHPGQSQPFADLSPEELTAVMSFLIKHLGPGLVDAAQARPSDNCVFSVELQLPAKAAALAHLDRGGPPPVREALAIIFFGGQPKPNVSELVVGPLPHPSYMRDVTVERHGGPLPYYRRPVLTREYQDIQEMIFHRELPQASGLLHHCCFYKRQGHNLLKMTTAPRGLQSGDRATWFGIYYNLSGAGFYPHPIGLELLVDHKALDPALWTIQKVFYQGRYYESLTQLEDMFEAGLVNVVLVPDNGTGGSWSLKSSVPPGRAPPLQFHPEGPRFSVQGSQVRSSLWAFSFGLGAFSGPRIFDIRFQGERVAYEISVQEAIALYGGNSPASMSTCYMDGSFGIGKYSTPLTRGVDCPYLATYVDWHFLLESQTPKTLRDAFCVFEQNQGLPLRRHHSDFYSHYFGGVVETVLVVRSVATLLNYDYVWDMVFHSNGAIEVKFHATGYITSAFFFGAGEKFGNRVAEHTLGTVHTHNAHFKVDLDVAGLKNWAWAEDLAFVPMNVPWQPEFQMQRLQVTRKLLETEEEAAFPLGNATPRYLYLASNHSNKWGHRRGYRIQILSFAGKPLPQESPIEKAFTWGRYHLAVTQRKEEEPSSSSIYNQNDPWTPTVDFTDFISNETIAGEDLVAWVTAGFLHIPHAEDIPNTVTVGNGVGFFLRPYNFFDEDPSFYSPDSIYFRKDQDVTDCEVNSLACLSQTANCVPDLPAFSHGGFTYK

Cl.Cl.NC/C(=C\F)COc1cnc(N2CCC(O)CC2)nc1 [Example 2, 1-[5-[(E)-2-(Aminomethyl)-3-fluoro-allyloxy]pyrimidin-2-yl]piperidin-4-ol dihydrochloride]
activity at 0.005 mg/kg (SSAO; [3]): 75 ± 18% | activity at 0.005 mg/kg (SSAO; [4]): 31 ± 3% | activity at 0.005 mg/kg (SSAO; [5]): 70 ± 7% | activity at 0.025 mg/kg (SSAO; [3]): 68 ± 14% | activity at 0.025 mg/kg (SSAO; [4]): 21 ± 1% | activity at 0.025 mg/kg (SSAO; [5]): 55 ± 9% | activity at 0.12 mg/kg (SSAO; [3]): 45 ± 8% | activity at 0.12 mg/kg (SSAO; [4]): 7 ± 1% | activity at 0.12 mg/kg (SSAO; [5]): 35 ± 4% | activity at 0.6 mg/kg (SSAO; [3]): 16.2 ± 2.9% | activity at 0.6 mg/kg (SSAO; [4]): 4.3 ± 0.8% | activity at 0.6 mg/kg (SSAO; [5]): 16.3 ± 2.6% | activity at 3 mg/kg (SSAO; [3]): 7.1 ± 1.7% | activity at 3 mg/kg (SSAO; [4]): 3.6 ± 1% | activity at 3 mg/kg (SSAO; [5]): 8.8 ± 1.3% | activity at 15 mg/kg (SSAO; [3]): 9.6 ± 2.6% | activity at 15 mg/kg (SSAO; [4]): -0.6 ± 0.3% | activity at 15 mg/kg (SSAO; [5]): 6.6 ± 1.8% | inhibition of SSAO activity in rat plasma and liver (SSAO; doses 0.005 to 15 mg/kg): dose-dependently inhibits SSAO activity

Cl.Cl.NC/C(=C\F)COc1cnc(N2CC[C@H](O)C2)nc1 [Example 6, (3S)-1-[5-[(E)-2-(Aminomethyl)-3-fluoro-allyloxy]pyrimidin-2-yl]pyrrolidin-3-ol; Dihydrochloride]
plasma compound levels (in words) [1]: dose-dependent increase | Score (0-3) Hepatic inflammation Left ([2]; 0.6 mg/kg once daily 11 weeks): 2.6 ± 0.1 | Score (0-3) Macrovesicular vaculation Left ([2]; 0.6 mg/kg once daily 11 weeks): 2.5 ± 0.1 | Score (0-3) Perisinusoidal fibrosis Left ([2]; 0.6 mg/kg once daily 11 weeks): 2.4 ± 0.2 | Score (0-3) Hepatic inflammation Right ([2]; 0.6 mg/kg once daily 11 weeks): 2.5 ± 0.1 | Score (0-3) Macrovesicular vaculation Right ([2]; 0.6 mg/kg once daily 11 weeks): 2.6 ± 0.1 | Score (0-3) Perisinusoidal fibrosis Right ([2]; 0.6 mg/kg once daily 11 weeks): 1.9 ± 0.2 | Score (0-3) Hepatic inflammation Left ([2]; 2 mg/kg once daily 11 weeks): 2.5 ± 0.1 | Score (0-3) Macrovesicular vaculation Left ([2]; 2 mg/kg once daily 11 weeks): 2.5 ± 0.1 | Score (0-3) Perisinusoidal fibrosis Left ([2]; 2 mg/kg once daily 11 weeks): 2.5 ± 0.2 | Score (0-3) Hepatic inflammation Right ([2]; 2 mg/kg once daily 11 weeks): 2.6 ± 0.1 | Score (0-3) Macrovesicular vaculation Right ([2]; 2 mg/kg once daily 11 weeks): 2.7 ± 0.1 | Score (0-3) Perisinusoidal fibrosis Right ([2]; 2 mg/kg once daily 11 weeks): 1.8 ± 0.2 | Score (0-3) Hepatic inflammation Left ([2]; 6 mg/kg once daily 11 weeks): 2.5 ± 0.2 | Score (0-3) Macrovesicular vaculation Left ([2]; 6 mg/kg once daily 11 weeks): 2.9 ± 0.1 | Score (0-3) Perisinusoidal fibrosis Left ([2]; 6 mg/kg once daily 11 weeks): 2.6 ± 0.2 | Score (0-3) Hepatic inflammation Right ([2]; 6 mg/kg once daily 11 weeks): 2.6 ± 0.2 | Score (0-3) Macrovesicular vaculation Right ([2]; 6 mg/kg once daily 11 weeks): 2.7 ± 0.1 | Score (0-3) Perisinusoidal fibrosis Right ([2]; 6 mg/kg once daily 11 weeks): 2.1 ± 0.3 | hepatic inflammation (in words) ([2]; 20 mg/kg): significant decrease | macrovesicular vaculation (in words) ([2]; 20 mg/kg): significant decrease | perisinusoidal fibrosis (in words) ([2]; 20 mg/kg): significant decrease | Score (0-3) Macrovesicular vaculation Left ([2]; 20 mg/kg once daily 11 weeks): 2.4 ± 0.2 | Score (0-3) Perisinusoidal fibrosis Left ([2]; 20 mg/kg once daily 11 weeks): 1.9 ± 0.2 | Score (0-3) Hepatic inflammation Left ([2]; 20 mg/kg once daily 11 weeks, p < 0.01 vs vehicle): 2.1 ± 0.1 | Score (0-3) Hepatic inflammation Right [2, 6]: 2.1 ± 0.1 | Score (0-3) Macrovesicular vaculation Right [2, 6]: 2.3 ± 0.1 | Score (0-3) Perisinusoidal fibrosis Right [2, 6]: 1.5 ± 0.2 | triglyceride levels in blood (in words) ([2]; 6 and 20 mg/kg): decreased triglyceride levels | ALT (in words) ([2]; all treated groups): significant decrease
